Data from patent US6639130B2, “Plant sterol reductases and uses thereof” (The General Hospital Corporation, priority 1996, dated 2003).
“Also recorded” adds a separate entry of the source.

Key:
wild-type seedlings = test: Treatment of wild-type seedlings with synthetic cytokinin (phenocopy of ell mutant morphology); type: in vivo, Arabidopsis; details: 30 μM; in the dark or light
From the text: From left to right in both FIGS. 1A-1B: wild-type plant; wild-type plant+2ip; ell; and ell+2ip.

ell seedlings = test: Exogenous feeding of brassinolide to ell seedlings germinated on agar plates; type: in vivo, Arabidopsis; details: 1 μM in growth medium (agar plates); dark or light
Description: FIGS. 13A-13B are photographs showing that the ell phenotype was not corrected by exogenous feeding of brassinolide (1 μM) in either dark (FIG. 13A) or light (FIG. 13B). From left to right in FIGS. 13A-13B: wild-type; ell; wild-type+brassinolide; and ell+brassinolide.
To determine whether the ell mutant phenotype is corrected by exogenous feeding of brassinolide, we germinated ell seedlings on agar plates containing 1 μM brassinolide or 1 μM 24-epibrassinolide (Li et al., Science 272: 398, 1996). […] Thus, it appears that steroid compounds other than BRs are needed to restore an ell mutant to a normal growth and development phenotype, as reflected by the pleiotropic phenotypes such as stunted roots (FIG. 2) and impaired embryogenesis (FIGS. 7A-7F).

Row | Compound | ell mutant seedling morphology phenocopied in wild-type seedlings (wild-type seedlings) | correction of the ell mutant phenotype by exogenous feeding (ell seedlings)
1 | CC(C)=CCNc1ncnc2nc[nH]c12 [2ip, dimethylallylamino-purine] | phenocopied | –
2 | CC(C)[C@@H](C)[C@@H](O)[C@H](O)[C@@H](C)[C@H]1CC[C@H]2[C@@H]3COC(=O)[C@H]4C[C@H](O)[C@H](O)C[C@]4(C)[C@H]3CC[C@]12C [24-epibrassinolide] | – | did not alter the mutant phenotype
3 | CC(C)[C@H](C)[C@@H](O)[C@H](O)[C@@H](C)[C@H]1CC[C@H]2[C@@H]3COC(=O)[C@H]4C[C@H](O)[C@H](O)C[C@]4(C)[C@H]3CC[C@]12C [brassinolide] | – | not corrected; also recorded: did not alter the mutant phenotype
